Tests used:
hNav1.2 = target: T1, hNav1.2 (Homo sapiens, UniProt Q99250); assay: automated whole-cell patch clamp (QPatch 16X), HEK293-hNav1.2; assay type: cell-based
T1 construct: host or cells: HEK293

hNav1.6 = target: T2, hNav1.6 (Homo sapiens, UniProt Q9UQD0); assay: automated whole-cell patch clamp (QPatch 16X), HEK293-hNav1.6; assay type: cell-based
T2 construct: host or cells: HEK293

[1] = acute in vivo toxicity after intravenous injection; parameters: species or system mouse
Protocol: Acute in vivo toxicity. All animal experiments were performed in accordance with protocols approved by the Institutional Animal Care and Use Committee of MSK and followed the National Institute of Health guidelines for animal welfare. Six athymic nude mice 6-8 weeks old were purchased from Envigo RMS, Inc. An intravenous (IV) catheter was placed in tail vein of each mouse and they were anesthetized using Isoflurane (Novaplus, Telangana-India). Anesthesia was maintained using 1.0 to 1.5 L/min of Isoflurane and 2 L/min of oxygen. Three animals were injected with 68 μM, 7 nmol Hsp1a-FL in 100 μL of PBS, and the other three with […], of PBS. Animals were monitored using a rodent surgical monitor (Indus instruments, Houston, Tex.) before, during, and up to 16 minutes after injection. Numeric data points represent averaged values of 5±1 seconds duration. Data was collected before injection, 15 seconds after injection, 5 minutes after injection and 15 minutes after injection. Mouse body core temperature was measured by placing a rectal probe and electronically regulated via a surgical platform. The high-resolution electrocardiogram (EKG) was measured by placing non-invasive electrodes on the 4 paws and electrical contact was assured using a conducting gel (Electrode cream, Indus instruments, Houston, Tex.). Heart rate was automatically calculated from the R-R peaks derived from the EKG signal. Peripheral capillary oxygen saturation (SpO2) was non-invasively measured by placing a clip sensor on the animal's left thigh.
Statistical Analysis. Data were statistically analyzed by generalized estimating equations followed by LSD post hoc test when appropriate using SPSS 23.0. During animal toxicity studies, data points representing loss of signal were excluded from the analysis. Loss of signal was defined by a brief contact loss between the monitoring equipment and the mice (creating a “false” zero or −1 result). Loss of signal was corrected by placing the electrode in close contact to the mice. Average and standard deviations were calculated for each mouse.
Unless otherwise stated, data points represent mean values and error bars represent the standard deviation of biological replicates (mean±SEM). All p-values were calculated using a Student's unpaired t-test. Statistical significance was considered for p-values<0.05 and as follows: ns=not significant, *p<0.05, **p<0.01, ***p<0.001. Mann-Whitney tests were used for analysis of the unpaired samples (e.g. vital signs in mice injected with Hsp1a and mice from the control group) and the Wilcoxon test was used for analysis of paired samples (e.g. vital signs from same mouse before and after injection). Statistical significance was determined with alpha=0.05. Analysis and figures were prepared in GraphPad Prism 8.

hNav1.7 [2] = target: T3, hNav1.7 (Homo sapiens, UniProt Q15858); assay: conventional whole cell patch clamp, kinetic studies on hNav1.7; assay type: cell-based
T3 construct: host or cells: HEK293
Protocol: Conventional patch clamp. Coverslips containing cells of HEK293 stable expressing hNav1.7 α and human β1 subunits were placed in a recording chamber on the stage of an inverted microscope with the extracellular solution containing 140 mM NaCl, 2 mM CaCl2, 4 mM KCl, 1 mM MgCl2, and 10 mM HEPES (pH 7.4 with NaOH). […] All recordings were made at room temperature (22-24° C.) using MultiClamp 700B amplifier, Axo™ Digidata® 1550B and PCLAMP software (Molecular Devices). Nav channel currents were measured using the whole cell configuration of the patch clamp technique. All peptides were dissolved in the extracellular solution with 0.1% BSA. The effects of peptides were tested by using the same voltage protocol as showing in the Qpatch technique. Concentration response data were analysed using nonlinear least-squares fit of the log (inhibitor) vs. response (three parameters) (GraphPad Prism 7) to provide pIC50 determinations. The conductance-voltage (G-V) relationships obtained by using a protocol in which cells depolarised from a holding potential of −120 mV, stepping from −80 to +60 mV in 5 mV increments. Steady-state inactivation was obtained by applying a depolarisation to 0 mV following a series step potential from −120 mV to 20 mV in 5 mV increments. The V0.5 activation and inactivation were calculated by fitting data with Boltzmann equation in GraphPad Prism 7. Recovery from fast inactivation was obtained by applying a first 0 mV pulse followed by repolarisation to −120 mV and a second pulse to 0 mV after a period ranging from 0 to 50 ms, increasing in 1 ms increments. The time constant was calculated by fitting data with one-phase decay in GraphPad Prism 7.

[3] = 10 μM, 37° C.
hNav1.3 = target: T4, hNav1.3 (Homo sapiens, UniProt Q9NY46); assay: automated whole-cell patch clamp (QPatch 16X), HEK293-hNav1.3; assay type: cell-based
T4 construct: host or cells: HEK293

hNav1.7 [4] = target: T3, hNav1.7; assay: automated whole-cell patch clamp (QPatch 16X), HEK293-hNav1.7; assay type: cell-based
[5] = before, 15 seconds, 5 and 15 minutes after injection
[6] = 60 nM, compared to vehicle, P<0.01

T4 sequence (Q07699 19-218): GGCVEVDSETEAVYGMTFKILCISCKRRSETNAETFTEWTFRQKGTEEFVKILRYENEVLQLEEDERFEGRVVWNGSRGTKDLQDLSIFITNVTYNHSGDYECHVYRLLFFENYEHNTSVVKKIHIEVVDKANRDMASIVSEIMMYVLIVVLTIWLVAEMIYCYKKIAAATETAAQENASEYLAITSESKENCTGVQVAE
T4 sequence (Q9NY46 whole entry): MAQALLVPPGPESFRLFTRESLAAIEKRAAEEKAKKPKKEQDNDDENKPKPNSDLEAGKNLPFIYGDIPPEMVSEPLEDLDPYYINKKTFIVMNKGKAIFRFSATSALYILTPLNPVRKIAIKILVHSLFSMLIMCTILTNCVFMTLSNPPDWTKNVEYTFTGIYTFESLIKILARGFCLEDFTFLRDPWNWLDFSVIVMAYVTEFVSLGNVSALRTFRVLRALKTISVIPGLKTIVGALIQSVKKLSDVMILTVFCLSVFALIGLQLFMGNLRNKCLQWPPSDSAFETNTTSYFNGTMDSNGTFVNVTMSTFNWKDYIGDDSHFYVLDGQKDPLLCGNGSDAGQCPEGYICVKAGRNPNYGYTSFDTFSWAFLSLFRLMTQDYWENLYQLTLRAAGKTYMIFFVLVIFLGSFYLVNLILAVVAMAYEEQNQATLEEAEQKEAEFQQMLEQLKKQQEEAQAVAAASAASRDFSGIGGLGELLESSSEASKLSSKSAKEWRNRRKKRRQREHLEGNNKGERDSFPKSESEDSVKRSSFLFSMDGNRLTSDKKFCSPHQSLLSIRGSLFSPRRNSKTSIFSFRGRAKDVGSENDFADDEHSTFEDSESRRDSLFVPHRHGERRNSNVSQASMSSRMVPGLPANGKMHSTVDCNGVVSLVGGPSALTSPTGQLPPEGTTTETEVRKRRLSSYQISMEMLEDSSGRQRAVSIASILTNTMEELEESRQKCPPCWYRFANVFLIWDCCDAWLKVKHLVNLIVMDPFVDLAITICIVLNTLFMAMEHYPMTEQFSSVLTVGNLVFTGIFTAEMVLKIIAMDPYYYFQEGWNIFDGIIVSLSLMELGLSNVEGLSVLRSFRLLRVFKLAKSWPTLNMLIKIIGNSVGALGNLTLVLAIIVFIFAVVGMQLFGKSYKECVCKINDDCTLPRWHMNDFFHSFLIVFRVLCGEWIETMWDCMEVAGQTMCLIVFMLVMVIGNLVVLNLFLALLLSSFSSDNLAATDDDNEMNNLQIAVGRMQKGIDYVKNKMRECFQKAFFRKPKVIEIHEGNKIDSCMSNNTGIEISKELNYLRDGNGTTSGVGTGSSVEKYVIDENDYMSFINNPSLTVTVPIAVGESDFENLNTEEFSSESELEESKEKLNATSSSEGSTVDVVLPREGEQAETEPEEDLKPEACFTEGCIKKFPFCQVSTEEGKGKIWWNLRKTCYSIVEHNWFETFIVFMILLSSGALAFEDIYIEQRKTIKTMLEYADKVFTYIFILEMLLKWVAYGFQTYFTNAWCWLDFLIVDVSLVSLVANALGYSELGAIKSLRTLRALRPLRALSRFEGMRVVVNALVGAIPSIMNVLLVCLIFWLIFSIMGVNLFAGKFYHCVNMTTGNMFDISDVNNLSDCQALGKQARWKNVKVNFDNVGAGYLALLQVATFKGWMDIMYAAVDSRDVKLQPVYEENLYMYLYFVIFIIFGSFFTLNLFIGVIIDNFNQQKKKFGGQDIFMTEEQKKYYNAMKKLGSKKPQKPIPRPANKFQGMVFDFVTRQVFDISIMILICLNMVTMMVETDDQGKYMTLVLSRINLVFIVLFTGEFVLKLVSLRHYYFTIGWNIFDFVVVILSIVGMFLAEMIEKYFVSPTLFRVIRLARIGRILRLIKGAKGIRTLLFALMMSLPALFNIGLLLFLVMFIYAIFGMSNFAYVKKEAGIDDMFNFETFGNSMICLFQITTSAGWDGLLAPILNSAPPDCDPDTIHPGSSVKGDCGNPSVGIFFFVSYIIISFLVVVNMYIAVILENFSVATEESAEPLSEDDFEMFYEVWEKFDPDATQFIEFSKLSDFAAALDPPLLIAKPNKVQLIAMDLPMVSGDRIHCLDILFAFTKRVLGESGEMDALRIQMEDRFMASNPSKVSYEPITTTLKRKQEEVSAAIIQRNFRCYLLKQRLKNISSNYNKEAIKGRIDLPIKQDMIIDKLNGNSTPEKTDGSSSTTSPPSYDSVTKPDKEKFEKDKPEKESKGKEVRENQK
T1 sequence (Q07699 19-218): as the sequence (Q07699 19-218) above
T1 sequence (Q99250 whole entry): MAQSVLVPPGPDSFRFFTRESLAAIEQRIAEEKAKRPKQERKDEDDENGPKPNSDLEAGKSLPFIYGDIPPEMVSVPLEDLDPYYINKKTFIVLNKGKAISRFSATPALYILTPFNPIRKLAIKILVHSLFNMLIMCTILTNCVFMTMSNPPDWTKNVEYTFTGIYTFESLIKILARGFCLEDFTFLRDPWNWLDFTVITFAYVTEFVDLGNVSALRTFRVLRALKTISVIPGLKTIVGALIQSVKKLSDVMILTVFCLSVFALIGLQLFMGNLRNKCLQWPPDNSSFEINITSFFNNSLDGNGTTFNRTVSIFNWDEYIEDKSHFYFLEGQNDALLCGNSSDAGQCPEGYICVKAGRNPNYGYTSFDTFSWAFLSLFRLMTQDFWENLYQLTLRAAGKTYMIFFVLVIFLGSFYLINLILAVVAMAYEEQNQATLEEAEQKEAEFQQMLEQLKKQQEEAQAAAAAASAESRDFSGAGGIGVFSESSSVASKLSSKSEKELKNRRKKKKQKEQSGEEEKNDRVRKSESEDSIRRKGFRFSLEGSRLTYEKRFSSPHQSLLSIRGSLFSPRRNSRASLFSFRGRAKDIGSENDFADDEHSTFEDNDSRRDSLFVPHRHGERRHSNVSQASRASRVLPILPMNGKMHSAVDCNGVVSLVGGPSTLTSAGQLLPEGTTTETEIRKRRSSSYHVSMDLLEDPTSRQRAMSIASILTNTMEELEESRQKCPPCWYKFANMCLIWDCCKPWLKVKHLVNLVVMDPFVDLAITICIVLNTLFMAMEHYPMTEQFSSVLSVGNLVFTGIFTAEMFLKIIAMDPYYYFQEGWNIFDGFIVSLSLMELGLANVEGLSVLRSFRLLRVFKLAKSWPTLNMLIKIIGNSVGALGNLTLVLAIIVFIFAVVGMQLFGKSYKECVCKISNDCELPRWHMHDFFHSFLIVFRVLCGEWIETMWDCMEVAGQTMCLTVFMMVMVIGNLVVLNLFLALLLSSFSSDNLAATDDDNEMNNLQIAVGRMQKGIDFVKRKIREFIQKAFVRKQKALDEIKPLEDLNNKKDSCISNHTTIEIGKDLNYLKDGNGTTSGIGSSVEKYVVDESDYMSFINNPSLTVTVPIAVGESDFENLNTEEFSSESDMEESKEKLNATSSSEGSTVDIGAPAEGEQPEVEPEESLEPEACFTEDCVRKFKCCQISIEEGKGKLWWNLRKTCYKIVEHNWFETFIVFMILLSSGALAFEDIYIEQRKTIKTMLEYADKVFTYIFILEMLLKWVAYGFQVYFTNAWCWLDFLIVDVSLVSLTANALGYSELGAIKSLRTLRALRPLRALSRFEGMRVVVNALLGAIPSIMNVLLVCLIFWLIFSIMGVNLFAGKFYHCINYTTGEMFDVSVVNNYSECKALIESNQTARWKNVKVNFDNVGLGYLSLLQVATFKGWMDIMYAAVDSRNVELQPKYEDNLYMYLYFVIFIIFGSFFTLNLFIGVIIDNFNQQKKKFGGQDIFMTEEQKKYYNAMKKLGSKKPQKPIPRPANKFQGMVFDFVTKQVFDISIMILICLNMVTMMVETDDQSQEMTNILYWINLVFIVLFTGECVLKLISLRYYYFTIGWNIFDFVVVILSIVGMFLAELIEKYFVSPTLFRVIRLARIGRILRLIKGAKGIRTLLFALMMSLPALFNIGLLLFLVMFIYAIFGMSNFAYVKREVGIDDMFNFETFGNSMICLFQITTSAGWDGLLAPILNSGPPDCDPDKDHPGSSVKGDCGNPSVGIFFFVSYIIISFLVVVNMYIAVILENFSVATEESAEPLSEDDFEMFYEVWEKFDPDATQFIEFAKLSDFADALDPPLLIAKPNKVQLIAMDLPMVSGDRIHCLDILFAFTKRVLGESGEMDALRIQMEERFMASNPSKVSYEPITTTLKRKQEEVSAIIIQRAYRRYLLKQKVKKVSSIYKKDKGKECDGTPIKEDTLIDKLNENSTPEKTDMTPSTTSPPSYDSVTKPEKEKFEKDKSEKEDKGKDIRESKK

SMILES: CC[C@H](C)[C@H](NC(=O)[C@H](CCCCN)NC(=O)[C@@H]1CSSC[C@@H]2NC(=O)[C@@H]3CCCN3C(=O)[C@H](CCCNC(=N)N)NC(=O)[C@H](CCC(=O)O)NC(=O)[C@H](CO)NC(=O)[C@H](CC(=O)O)NC(=O)[C@@H]3CSSC[C@H](NC(=O)[C@H](C(C)C)NC(=O)[C@H](CC(C)C)NC(=O)CNC(=O)[C@H](CCC(=O)O)NC(=O)[C@H](CSSC[C@H](NC(=O)[C@@H](N)Cc4ccc(O)cc4)C(=O)N[C@@H](CCC(N)=O)C(=O)N[C@@H](CCCCN)C(=O)N[C@@H](Cc4ccccc4)C(=O)N[C@@H](CC(C)C)C(=O)N[C@@H](Cc4c[nH]c5ccccc45)C(=O)N[C@@H]([C@@H](C)O)C(=O)N3)NC2=O)C(=O)N[C@@H](CCCNC(=N)N)C(=O)N[C@@H](CC(C)C)C(=O)N[C@@H](Cc2c[nH]c3ccccc23)C(=O)N1)C(=O)N[C@@H](CC(N)=O)C(N)=O [sHsp1a]
- hNav1.2 currents blocked (hNav1.2; at 200 nM): 30%
- inhibition at 2 µM (hNav1.2; at 2 μM, read-out: max. current inhibition hNav1.2): 60%
- IC50 (hNav1.2; mean±S.E.M, read-out: pIC50 on hNav1.2 (converted)): 302 nM
- inhibition of hNav1.6 currents (hNav1.6; at 200 nM): did not show any significant inhibition
- inhibition at 2 µM (hNav1.6; at 2 μM, read-out: max. current inhibition hNav1.6): < 50%
- IC50 (hNav1.6; read-out: pIC50 on hNav1.6 (converted)): > 1000 nM
- effect on heart muscle (heart rate) [1, 5]: no effect
- effect on the respiratory musculature (oxygen saturation in peripheral blood) [1, 5]: no effect
- effect on mouse body temperature ([1]; mouse, in vivo): no effect
- V0.5 inactivation Δ (hNav1.7 [2]; [6]): −11.62 mV
- Δτ, recovery from fast inactivation (hNav1.7 [2]; [6]): 1 ms
- time for currents to recover following washout in peptide-free solution (hNav1.7 [2]; after application of 200 nM for 4 min): ~10 min
- time constant τ of recovery from fast inactivation (hNav1.7 [2]; in presence of 60 nM, n=5, mean±SEM): 5.03 ± 0.43 ms
- amount in human serum after 24 hours [3]: remained constant
- inhibition of hNav1.3 currents (hNav1.3; at 200 nM): did not show any significant inhibition
- inhibition at 2 µM (hNav1.3; at 2 μM, read-out: max. current inhibition hNav1.3): < 50%
- IC50 (hNav1.3; read-out: pIC50 on hNav1.3 (converted)): > 1000 nM
- hNav1.7 currents blocked (hNav1.7 [4]; at 200 nM): 70%
- inhibition at 2 µM (hNav1.7 [4]; at 2 μM, read-out: current inhibition hNav1.7): 75%
- IC50 (hNav1.7 [4]; mean±S.E.M, read-out: pIC50 on hNav1.7 (converted)): 10.5 nM

From patent US20220089663A1, “PROTEINS AND FLUOROPHORE-CONTAINING COMPOUNDS SELECTIVE FOR NaV1.7” (MEMORIAL SLOAN KETTERING CANCER CENTER, priority 2019, published 2022)
